Values after ≈ are worked out from the molar mass of the structure shown.
Legend:
[1] = test system: Escherichia coli; assay: Minimal inhibitory concentration against Escherichia coli; type: functional
[2] = test system: Staphylococcus aureus; assay: In vitro minimal inhibitory concentration against Staphylococcus aureus.; type: functional
[3] = test system: Escherichia coli; assay: Minimal inhibitory concentration against Escherichia coli (Range is 50-100 uM); type: functional
[4] = test system: Staphylococcus aureus; assay: Minimal inhibitory concentration against Staphylococcus aureus (Range is 25-50 uM); type: functional
[5] = test system: Staphylococcus aureus; assay: Minimal inhibitory concentration against Staphylococcus aureus (Range is 50-100 uM); type: functional
[6] = test system: Escherichia coli; assay: Minimal inhibitory concentration against Escherichia coli (Range is 25-50 uM); type: functional
[7] = test system: Staphylococcus aureus; assay: Minimal inhibitory concentration against Staphylococcus aureus (Range is 12-25 uM); type: functional
[8] = test system: Klebsiella pneumoniae; assay: Minimal inhibitory concentration against gram negative Klebsiella pneumoniae 13383 strain (Range is 6-12 uM); type: functional
[9] = test system: Pseudomonas aeruginosa; assay: Minimal inhibitory concentration against gram negative Pseudomonas aeruginosa 25416 strain (Range is 12-25 uM); type: functional
[10] = test system: Streptococcus pyogenes; assay: Minimal inhibitory concentration against gram positive Streptococcus pyogenes 49399 strain (Range is 3-6 uM); type: functional
[11] = test system: Escherichia coli; assay: Minimal inhibitory concentration against gram negative Escherichia coli 25922 strain (Range is 12-25 uM); type: functional; details: ATCC25922
[12] = test system: Staphylococcus aureus; assay: Minimal inhibitory concentration against Staphylococcus aureus (Range is 6-12 uM); type: functional
[13] = test system: Streptococcus pneumoniae; assay: Minimal inhibitory concentration against gram positive Streptococcus pneumoniae 6303 strain (Range is 6-12 uM); type: functional
[14] = test system: Staphylococcus aureus; assay: Minimal inhibitory concentration against gram positive Staphylococcus aureus 13709 strain (Range is 6-12 uM); type: functional
[15] = test system: Bacteria; assay: Inhibitory activity against bacteria in the transcription/translation assay; type: functional, organism-based
[16] = test system: Enterococcus hirae; assay: Minimal inhibitory concentration against gram positive Enterococcus hirae 29212 strain (Range is 1-3 uM); type: functional
[17] = test system: Escherichia coli; assay: Minimal inhibitory concentration against Escherichia coli (Range is 12-25 uM); type: functional

| Compound | MIC [1] | MIC [2] | MIC [4] | also measured |
| --- | --- | --- | --- | --- |
| Clc1cc2nc(C3CCNCC3)n(CCCCCN3Cc4ccccc4C3)c2cc1Cl | – | – | – | MIC [5]: 100 µM (≈ 45.7 µg/mL); MIC [6]: 50 µM (≈ 22.9 µg/mL) |
| Clc1cc2nc(C3CCNCC3)n(CCCCCn3cnc4ccccc43)c2cc1Cl | – | – | – | MIC [5]: 100 µM (≈ 45.6 µg/mL); MIC [3]: 100 µM (≈ 45.6 µg/mL) |
| O=C(Cn1c(C2CCNCC2)nc2cc(Cl)c(Cl)cc21)NNC(=O)Nc1ccccc1-c1ccccc1 | – | – | – | MIC [6]: 50 µM (≈ 26.9 µg/mL); MIC [7]: 25 µM (≈ 13.4 µg/mL) |
| O=C(Cn1c(C2CCNCC2)nc2cc(Cl)c(Cl)cc21)NNC(=O)Nc1ccc2c(c1)OCO2 | – | – | 50 µM (≈ 25.3 µg/mL) | MIC [3]: 100 µM (≈ 50.5 µg/mL) |
| CSc1ccc(NC(=O)NNC(=O)Cn2c(C3CCNCC3)nc3cc(Cl)c(Cl)cc32)cc1 | – | – | – | MIC [6]: 50 µM (≈ 25.4 µg/mL); MIC [7]: 25 µM (≈ 12.7 µg/mL) |
| O=C1c2ccccc2C(=O)N1CCCCn1c(C2CCNCC2)nc2cc(Cl)c(Cl)cc21 | > 100 µM | > 100 µM | – | – |
| O=C1c2cccc([N+](=O)[O-])c2C(=O)N1CCCCCn1c(C2CCNCC2)nc2cc(Cl)c(Cl)cc21 | > 100 µM | > 100 µM | – | – |
| O=C(O)CC/N=C(\S)NNC(=O)Cn1c(C2CCNCC2)nc2cc(Cl)c(Cl)cc21 | > 100 µM | > 100 µM | – | – |
| Clc1cc2nc(C3CCNCC3)n(CCCCCCn3c(C4CCNCC4)nc4cc(Cl)c(Cl)cc43)c2cc1Cl | – | – | – | MIC [8]: 12 µM (≈ 7.47 µg/mL); MIC [9]: 25 µM (≈ 15.6 µg/mL); MIC [10]: 6 µM (≈ 3.73 µg/mL); MIC [11]: 25 µM (≈ 15.6 µg/mL); MIC [12]: 12 µM (≈ 7.47 µg/mL); MIC [13]: 12 µM (≈ 7.47 µg/mL); MIC [14]: 12 µM (≈ 7.47 µg/mL); IC50 [15]: > 100 µM; MIC [16]: 3 µM (≈ 1.87 µg/mL); MIC [17]: 25 µM (≈ 15.6 µg/mL) |
| O=C1c2ccccc2C(=O)N1CCCCCCn1c(C2CCNCC2)nc2cc(Cl)c(Cl)cc21 | > 100 µM | > 100 µM | – | – |
| O=C1c2cc(Cl)c(Cl)cc2C(=O)N1CCCCCn1c(C2CCNCC2)nc2cc(Cl)c(Cl)cc21 | – | – | – | MIC [3]: 100 µM (≈ 55.4 µg/mL); MIC [7]: 25 µM (≈ 13.9 µg/mL) |
| CC(C)c1ccc2c(c1)CCC1C(C)(C/N=C(\S)NNC(=O)Cn3c(C4CCNCC4)nc4cc(Cl)c(Cl)cc43)CCC[C@]21C (some centres undefined) | – | – | 50 µM (≈ 33.5 µg/mL) | MIC [6]: 50 µM (≈ 33.5 µg/mL) |
| Clc1cc2nc(C3CCNCC3)n(CCCn3c(C4CCNCC4)nc4cc(Cl)c(Cl)cc43)c2cc1Cl | – | – | 50 µM (≈ 29 µg/mL) | MIC [6]: 50 µM (≈ 29 µg/mL) |
| O=C1CCC(=O)N1CCCCCn1c(C2CCNCC2)nc2cc(Cl)c(Cl)cc21 | > 100 µM | > 100 µM | – | – |

The next lines start with results.

| MIC [1] | MIC [2] | MIC [4] | Compound | also measured |
| --- | --- | --- | --- | --- |
| > 100 µM | > 100 µM | – | O=C(Cn1c(C2CCNCC2)nc2cc(Cl)c(Cl)cc21)N/N=C/c1ccncc1 | – |
| – | – | 50 µM (≈ 23.9 µg/mL) | O=C(Cn1c(C2CCNCC2)nc2cc(Cl)c(Cl)cc21)NNC(=S)Nc1ccccc1 | MIC [3]: 100 µM (≈ 47.7 µg/mL) |
| > 100 µM | > 100 µM | – | O=C(Cn1c(C2CCNCC2)nc2cc(Cl)c(Cl)cc21)N/N=C/c1ccccn1 | – |
| > 100 µM | > 100 µM | – | O=C(NCCCCCn1c(C2CCNCC2)nc2cc(Cl)c(Cl)cc21)c1ccccc1 | – |
| > 100 µM | – | 50 µM (≈ 23.8 µg/mL) | O=C(Cn1c(C2CCNCC2)nc2cc(Cl)c(Cl)cc21)N/N=C/c1cccc([N+](=O)[O-])c1 | – |
| > 100 µM | – | 50 µM (≈ 23.5 µg/mL) | O=C(Cn1c(C2CCNCC2)nc2cc(Cl)c(Cl)cc21)N/N=C/c1c[nH]c2ccccc12 | – |
| > 100 µM | – | – | O=C(Cn1c(C2CCNCC2)nc2cc(Cl)c(Cl)cc21)N/N=C/c1ccc(O)c(O)c1O | MIC [7]: 25 µM (≈ 12 µg/mL) |
| > 100 µM | – | 50 µM (≈ 26.1 µg/mL) | COc1cc(/C=N/NC(=O)Cn2c(C3CCNCC3)nc3cc(Cl)c(Cl)cc32)cc([N+](=O)[O-])c1O | – |
| > 100 µM | – | 50 µM (≈ 25.3 µg/mL) | COc1cc(/C=N/NC(=O)Cn2c(C3CCNCC3)nc3cc(Cl)c(Cl)cc32)cc(O)c1OC | – |

— ChEMBL document CHEMBL1147597, “Synthesis and biological evaluations of novel benzimidazoles as potential antibacterial agents” (Bioorg Med Chem Lett, 2004)
